The values that follow come from patent US7476692B2, “Pharmaceutical compositions of safingol and methods of using the same” (priority 2003, dated 2009).

Values after ≈ are worked out from the molar mass of the structure shown. Bounds are passed on as bounds.

A short description of data set [1]: Solubility/miscibility studies of safingol in solvent systems.
Description: (§1) The following solubility/miscibility studies were performed with safingol at various concentrations.
Another data set relates to sphingosine kinase. The settings on record: variously reported in the literature; cited from earlier work.
The test system of another data set is protein kinase C (PKC). The settings on record: variously reported; acting at the regulatory subunit of PKCs; cited from earlier work.
For the next data set, the system named is Fisher rats. The settings on record: Group III: 4-HPR 61 mg/kg/d D1-5 continuous iv, safingol 0; 3 male rats.

Description for physchem: as §1

Turning to `CCCCCCCCCCCCCCC[C@H](O)[C@@H](N)CO` [Safingol, (2S,3S)-2-amino-1,3-octadecanediol], the solubility was approximately 50000 µg/mL (≈ 166 mM) in the data set “physchem” (50:50 ethanol:WFI with lactic acid, aqueous with cosolvent or surfactant or cyclodextrin); 15700 µg/mL (≈ 52 mM) in the data set “physchem” (60:40 t-BuOH/WFI, aqueous with cosolvent or surfactant or cyclodextrin); 6600 to 7400 µg/mL (≈ 21.9 to 24.5 mM) in “physchem” (DMAC, organic solvent or mixture); 7220 µg/mL (≈ 23.9 mM) in “physchem” (Diluent 12, organic solvent or mixture); 1010 to 1060 µg/mL (≈ 3.35 to 3.52 mM) in the data set “physchem” (PEG 300, organic solvent or mixture); 7500 to 8200 µg/mL (≈ 24.9 to 27.2 mM) in “physchem” (ethanol, organic solvent or mixture). For the same compound, the solubility is 10000 µg/mL (≈ 33.2 mM) in the data set “physchem” (lactic acid in WFI with 5 mg/mL mannitol, aqueous buffer); more than 10000 µg/mL in the data set “physchem” (lactic acid/WFI, aqueous buffer); approximately 20000 µg/mL (≈ 66.3 mM) in the data set “physchem” (lactic acid/ethanol, organic solvent or mixture); not below 5000 µg/mL in the data set “physchem” (propionic acid/WFI, aqueous buffer); 1060 to 1350 µg/mL (≈ 3.52 to 4.48 mM) in the data set “physchem” (propylene glycol, organic solvent or mixture); more than 25000 µg/mL in the data set “physchem” (t-butanol, organic solvent or mixture). Moreover, the “Precipitate at 2° C. to 8° C.” value in data set [1] (50:50 Ethanol:WFI with lactic acid) is on record as “precipitate formation”; in data set [1] (Lactic acid in 2% EPL in WFI), “no precipitate”; in data set [1] (Lactic acid/Ethanol), “precipitate formation”; in data set [1] (Lactic acid/WFI) it was “precipitate formation”; in data set [1] (Propionic acid/WFI), “precipitate formation”. In addition, the “Solubility (Result)” value was “not soluble” in data set [1] (Castor oil); “not soluble” in data set [1] (Citric acid/WFI); “not soluble” in data set [1] (DMSO); “not soluble” in data set [1] (HC1/WFI); “not soluble” in data set [1] (HCl/Ethanol); “solubility similar to lactic without EPL” in data set [1] (Lactic acid in 2% EPL in WFI). The “Solubility (Result)” value in data set [1] (Maleic acid/WFI) was “not soluble”; in data set [1] (Malic acid/WFI), “not soluble”; in data set [1] (Methanesulfonic acid/Ethanol), “not soluble”; in data set [1] (Methanesulfonic acid/WFI) it was “not soluble, but the appearance of the safingol changed,”; in data set [1] (Neobee oil), “Not soluble”; in data set [1] (Pluronic F-68/WFI), “not soluble”. For the same compound, the “Solubility (Result)” value in data set [1] (Safflower oil, attempted: 0.5 mg/mL) is given as “Not soluble (attempted: 0.5 mg/mL)”; in data set [1] (Sesame oil, attempted: 0.5 mg/mL), “Not soluble (attempted: 0.5 mg/mL)”; in data set [1] (Sodium Lactate/WFI), “not soluble”; in data set [1] (Soybean oil), “Not soluble”; in data set [1] (Tartaric acid/WFI), “not soluble”; in data set [1] (Tricaprylin, attempted: 0.5 mg/mL), “Not soluble (attempted: 0.5 mg/mL)”. The “Solubility (Result)” value was “not soluble” in data set [1] (Tween-80); “Not soluble (attempted: 0.5 mg/mL)” in data set [1] (Valium solvent, attempted: 0.5 mg/mL); “not soluble” in data set [1] (Vitamin E (α-tocopherol)). Moreover, the “Temperature at which later found to be soluble” value in data set [1] (Neobee oil) and in data set [1] (Soybean oil) was approximately 80 °C each time. Further, the “Precipitates on chilling, versus non-ethanol-containing solutions” value in data set [1] (ethanol-containing safingol/lactic acid solutions chilled to 2-8° C., then warmed to room temperature) was “reduced in quantity and dissolved much more readily”. Further, the “Effect of ethanol on solubility of safingol” value in data set [1] (lactic acid/water solutions) is recorded as “substantially increased”. Moreover, the “Inhibition of sphingosine kinase” value in the data set with sphingosine kinase is “inhibitor”. Further, the “Inhibition of protein kinase C (PKC), including PKCζ” value in the data set on protein kinase C (PKC) is “inhibitor”.
On to `CC1=C(/C=C/C(C)=C/C=C/C(C)=C/C(=O)Nc2ccc(O)cc2)C(C)(C)CCC1` [4-HPR, fenretinide], for which, in the data set on Fisher rats, the “Toxicity: din path” value is “din path: normal”, the “Toxicity: dinical signs” value is listed as “dinical signs: normal”, the “Toxicity: necropsy: discoloration(lung)” value is 3/3 and the “Toxicity: necropsy: emaciation” value is given as 1/3.
